Patent US20180028480A1, “METHODS OF REDUCING OR PREVENTING OXIDATIVE MODIFICATION OF MEMBRANE POLYUNSATURATED FATTY ACIDS” (Amarin Pharmaceuticals Ireland Limited, priority 2015, published 2018)

What was measured:
human sdLDL = assay: Copper-induced sdLDL oxidation, TBARS (Example 6); format: biochemical; details: 1.0 μM to 10.0 μM; 2 hr copper oxidation
Description: An experiment to study the antioxidant effect of EPA in small dense LDL (“sdLDL”) was performed. EPA was purchased from Sigma-Aldrich (Saint Louis, Mo.) and solubilized in ethanol to 1 mM under nitrogen atmosphere. Vitamin E (α-tocopherol) was purchased from Sigma-Aldrich and prepared in ethanol at 1.0 mM (c=3.06×10^4 M^−1 cm^−1 at 294 nm) just prior to experimental use. All test compounds were further diluted in ethanol or aqueous buffer as needed.
Venous blood was collected from healthy volunteers into vacutainer tubes containing sodium EDTA. Plasma was separated by centrifugation at 3000 g for 25 min at 4° C. and adjusted to a density of 1.020 g/mL with KBr. […]
LDL and sdLDL subfractions (0.6 mL each) were incubated with either 10 μL vehicle (ethanol) or 10 μL drug stock solution for 30 min to 1 hr at 37° C. […] Sample TBARS concentrations were determined spectrophotometrically by measuring sample absorbances against a standard curve derived from the hydrolysis of 1,1,3,3-tetramethoxypropane.
Data are presented as mean±S.D. for (N) separate samples or treatment groups. Differences between groups were analyzed using the two-tailed, Student's t-test (for comparisons between only two groups) or ANOVA followed by Dunnett or Student-Newman-Keuls multiple comparisons post-hoc analysis (for comparisons between three or more groups). […]

[1] = test system: lipid vesicles enriched with PUFAs and cholesterol; assay: Glucose-induced membrane lipid peroxidation (LOOH) in DLPC/cholesterol multilamellar vesicles (Example 4); format: biochemical; details: for effect on LOOH formation / lipid peroxidation: 72- and 96-hour time points, 1:30 drug-to-phospholipid mole ratio (FIG. 3)
Description: Vitamin E (α-tocopherol) was also purchased from Sigma-Aldrich and prepared in ethanol at 1.0 mM (ε32 3.06×10^4 M^−1 cm^−1 at 294 nm) just prior to experimental use. […] All test compounds were further diluted in ethanol or aqueous buffer as needed. Glucose was prepared in saline buffer (0.5 mM HEPES, 154 mM NaCl, pH 7.3) at 11.0 mM (200 mg/dL). CHOD-iodide color reagent (stock) was prepared, with slight modification, as described by from El-Saadani et al. (J. […] Prior to experimental use, the CHOD reagent was activated by adding 24 μM ethylenediaminetetraacetic acid (EDTA), 20 μM butylated hydroxytoluene (BHT), and 0.2% Triton X-100. Multilamellar vesicles (MLVs) were prepared as binary mixtures of DLPC (1.0 or 2.5 mg total phospholipid per sample) and cholesterol at a fixed cholesterol-to-phospholipid (C/P) mole ratio of 0.6:1. Component lipids (in chloroform) were transferred to 13×100 mm borosilicate culture tubes and combined with vehicle (ethanol) or an equal volume of fatty acid, vitamin E, or ATM stock solutions, each adjusted to achieve desired treatment concentrations. Samples were shell-dried under nitrogen gas and placed under vacuum for 1 h to remove residual solvent. […] Lipid suspensions were then vortexed for 3 min at ambient temperature to form MLVs. All MLV samples were subjected to time-dependent autoxidation by incubating at 37° C. in an uncovered, shaking water bath. This method allows lipid peroxidation to occur gradually without requiring the use of exogenous initiators. Small aliquots (5-100 μL) of each sample were removed, immediately following MLV preparation (0 hour) and after exposing samples to oxidative conditions for 72 or 96 hour, and combined with 1.0 mL of activated CHOD-iodide color reagent. Aliquot volume was reduced with each successive time point to ensure that spectrophotometric readings were within the optimal adsorption range. Test samples were covered and incubated in darkness at room temperature for at least 4 hr. Sample absorbances were then measured against a CHOD blank at 365 nm using a Beckman DU-640 spectrophotometer. The CHOD colorimetric assay is based on the oxidation of iodide (I^−) by lipid hydroperoxide (LOOH) to form triiodide (I3^−), the quantity of which is directly proportional to the amount of LOOH present in the lipid sample. The molar absorptivity (c) of I3^− is 2.46×10^4 M^−1 cm^−1 at 365 nm. […] The concentration of glucose selected was consistent with previous experimental studies of hyperglycemia under controlled laboratory conditions or observed in well-defined animal models of Type II diabetes following a glucose challenge. […] Values in FIG. 1 are mean±S.D. (N=6). […]

Compound | sdLDL oxidation (human sdLDL) | effect on LOOH formation / lipid peroxidation [1] | antioxidant effect (LOOH formation), separate treatments ([1]; each at 1.0 μM, glucose 200 mg/dL, 96 hours)
CC/C=C\C/C=C\C/C=C\C/C=C\C/C=C\CCCC(=O)O [EPA, cis-5,8,11,14,17-Eicosapentaenoic acid] | inhibited sdLDL oxidation over a broad range of concentrations | significantly inhibited LOOH formation | separate and potent antioxidant effects
Cc1c(C)c2c(c(C)c1O)CC[C@@](C)(CCC[C@H](C)CCC[C@H](C)CCCC(C)C)O2 [vitamin E, α-tocopherol, reference compound] | did not inhibit sdLDL oxidation except at the highest concentration | no significant effect on lipid peroxidation | –
